Laboratory results reported in PMC9725750, “The clinical pharmacology of tafenoquine in the radical cure of Plasmodium vivax malaria: An individual patient data meta-analysis” (eLife, 2022).

Key:
blood MetHb = test: Blood methaemoglobin (MetHb) concentration on day 7 by pulse CO-oximeter; format: in vivo, human
Source text: All patients in the phase 1 trial and the three efficacy trials had frequent blood MetHb measurements taken using non-invasive signal extraction pulse CO-oximeter handheld machines. For the three efficacy trials, we excluded measurements taken at or after recurrence of vivax malaria. Because erroneous readings from the handheld oximeters can occur, we inspected visually the longitudinal MetHb curves for each patient. […] All patients from this site were excluded from the MetHb analysis ( n =91), resulting in a total of 9632 MetHb measurements across 746 P. vivax infected patients and 72 healthy volunteers.

Plasmodium vivax = test: Radical cure efficacy: any P. vivax recurrence within 4 months in patients, pooled DETECTIVE part 1/2 and GATHER (logistic regression and Emax models); format: in vivo, human
Source text: The primary endpoint for the main efficacy analyses was any P. vivax recurrence within 4 months. We chose the binary endpoint of any recurrence rather than the time to first recurrence because tafenoquine has both asexual stage antimalarial activity ([Fukuda et al., 2017]) and hypnozoiticidal activity. […] The choice of a particular cut-off for follow-up is thus a trade-off between sensitivity and specificity. Longer follow-up will increase the sensitivity of the endpoint (include more relapses) but decrease specificity (include more reinfections).
For all predictors we fitted Bayesian mixed effects logistic regression models (random intercepts for study and study site), with adjustment for day 0 parasitaemia (log transformed). Logistic regression allows inference of the odds-ratio for recurrence for the predictive variable of interest, assuming a linear relationship between the predictive variable and log-odds for recurrence.
For the mg/kg dose (the primary predictor of interest), the dose-response relationship was then assessed under a Bayesian Emax model, where the dose-dependent logit probability of recurrence is defined as: Emax(d,x)=α+βx+δd^k/d^k+γ^k,
The Emax model was also fitted with random intercepts for study and study site.
To determine the main predictors of recurrence, we fitted a multivariable penalised Bayesian logistic regression model. This included the following variables as predictors: the tafenoquine mg/kg dose; the plasma tafenoquine AUC[0,∞); the plasma tafenoquine Cmax; the day 7 MetHb concentration (%); the terminal elimination half-life t1/2; and the baseline parasite density. The model included random intercept terms for each study and study site. […] To avoid convergence issues resulting from the co-linearity of the predictors, the prior on all non-hierarchical coefficients was set to a Normal(0,0.5). This prior effectively shrinks the regression coefficients towards zero. It can be interpreted as follows: plausible odds-ratios for recurrence for one standard deviation change for each of the fixed effect predictors lie approximately between 0.38 and 2.7).
In a priori sensitivity analyses, all recurrences up until 6 months were included as both binary and time to event outcomes. The time to first recurrence was defined as a P. vivax episode between day 7 and day 180 with right censoring at the last recorded visit. We also re-ran the same models in patients who received a 300 mg single dose of tafenoquine only (i.e. the current recommended treatment).

[1] = no reference given; cited from earlier work

Structure (SMILES): Clc1ccc2c(N3CCN(CCCN4CCN(c5ccnc6cc(Cl)ccc56)CC4)CC3)ccnc2c1 [piperaquine]
- association of day 7 piperaquine concentration with day 7 MetHb (reduction) (blood MetHb; healthy volunteers, tafenoquine + DHA-PQP, no clear association, 95% CI –27 to 72%): 40%

Structure (SMILES): CCCCN(CCCC)CC(O)c1cc(Cl)cc2c1-c1ccc(Cl)cc1/C2=C/c1ccc(Cl)cc1 (stereo not drawn) [lumefantrine]
- reduction in day 7 methaemoglobin per ten-fold increase in day 7 plasma lumefantrine concentration (blood MetHb; healthy volunteers randomised to tafenoquine + AL, 95% CI 3 to 62%): 40%

Structure (SMILES): COc1cc(NC(C)CCCN)c2ncccc2c1 (stereo not drawn) [primaquine]
- posterior probability that the recurrence was more likely following primaquine (Plasmodium vivax; 3.5 mg/kg primaquine vs 5 mg/kg tafenoquine): 0.73
- Recurrence at 4 months (Plasmodium vivax; PQ low-dose 15 mg base daily for 14 days + chloroquine, n=257): 57 (22.2) total number (%)
- mean probability of recurrence at 4 months (Plasmodium vivax; logistic model estimate, following 3.5 mg/kg primaquine, 95% CI 0.10–0.26): 0.17
- terminal elimination half-life [1]: 5 h
